Converted amounts (≈) assume the structure as drawn. Where two headings read alike, the source gives them in different places. Where a SMILES comes first, the peptide text is derived from it. [ ]: non-standard residue; d: D form. ξ: configuration not given here. Phe(4-F) = N[C@@H](Cc1ccc(F)cc1)C(=O)O; ξTic = O=C(O)C1Cc2ccccc2CN1; ξOic = O=C(O)C1CC2CCCCC2N1
Experiments:
[1] = system: Staphylococcus aureus Methicillin/Gentamicin/Tetracycline Resistant (ATCC 33592); settings: for MIC Staphylococcus aureus ME/GM/TC resistant: Minimal Inhibitory Concentration, tested at 100-0.1 in 1% DMSO; for Minimum Inhibitory Concentration Staphylococcus aureus ME/GM/TC resistant: in vitro MIC, tested at 100, 30, 10, 3, 1, 0.3 and 0.1 μM in 1% DMSO
[2] = system: Mycobacterium ranae (ATCC 110); settings: ATCC 110
[3] = system: Bacillus subtillis (ATCC 43223); settings: ATCC 43223
[4] = system: red blood cells; settings: 100 μM
[5] = system: F. tularensis SCHU-S4; settings: in vitro MIC
[6] = system: Bacillus anthracis Ames; settings: in vitro MIC
[7] = system: B. melitensis 16M; settings: in vitro MIC
[8] = system: Plague CO92; settings: in vitro MIC
[9] = in vitro; settings: human, microsomes, pH 7.4
[10] = in vitro; settings: monkey, microsomes, pH 7.4
[11] = in vitro; settings: dog, microsomes, pH 7.4
[12] = in vitro; settings: rat, microsomes, pH 7.4
[13] = in vitro; settings: mouse, microsomes, pH 7.4
[14] = system: Salmonella typhimurium (ATCC 13311); settings: ATCC 13311

Row | Compound | MIC Staphylococcus aureus ME/GM/TC resistant [1] [µM] | Minimum Inhibitory Concentration Staphylococcus aureus ME/GM/TC resistant [1] [µM] | MIC Mycobacterium ranae [2] [µM] | Minimum Inhibitory Concentration Mycobacterium ranae [2] [µM] | MIC Bacillus Subtillis [3] [µM] | Minimum Inhibitory Concentration F. tularensis SCHU-S4 [5] [µg/mL] | Minimum Inhibitory Concentration B. melitensis 16M [7] [µg/mL] | remaining at 0.25 h, 1 μM [9] [%] | remaining at 0.25 h, 1 μM [10] [%] | remaining at 0.5 h, 1 μM [10] [%] | remaining at 1 h, 1 μM [10] [%] | remaining at 0.5 h, 1 μM [11] [%] | remaining at 1 h, 1 μM [11] [%] | remaining at 0.25 h, 1 μM [12] [%] | remaining at 0.5 h, 1 μM [12] [%] | remaining at 0.5 h, 1 μM [13] [%] | remaining at 1 h, 1 μM [13] [%] | further results
1 | CC(C)C[C@H](NC(=O)[C@@H](N)CCCCN)C(=O)N1Cc2ccccc2CC1C(=O)N1C(C(=O)N[C@@H](CCCCN)C(=O)N2Cc3ccccc3CC2C(=O)N2C(C(=O)N[C@@H](Cc3ccccc3)C(=O)N3Cc4ccccc4CC3C(=O)N3C(C(=O)N[C@@H](CCCCN)C(=O)N4Cc5ccccc5CC4C(=O)N4C(C(=O)N[C@@H](Cc5ccccc5)C(=O)N5Cc6ccccc6CC5C(=O)N5C(C(=O)N[C@@H](CCCCN)C(=O)N6Cc7ccccc7CC6C(=O)N6C(C(=O)N[C@@H](CCCCN)C(=O)N[C@@H](CCCNC(=N)N)C(N)=O)CC7CCCCC76)CC6CCCCC65)CC5CCCCC54)CC4CCCCC43)CC3CCCCC32)CC2CCCCC21 (stereo partly drawn) [FKAB-1F, NH2-KL-Tic-Oic-K-Tic-Oic-F-Tic-Oic-K-Tic-Oic-F-Tic-Oic-K-Tic-Oic-KR-CONH2] (H-KL[ξTic][ξOic]K[ξTic][ξOic]F[ξTic][ξOic]K[ξTic][ξOic]F[ξTic][ξOic]K[ξTic][ξOic]KR-NH2) | 10.00 (≈ 30.8 µg/mL) | 10 | 30.00 (≈ 92.5 µg/mL) | 30 | 1.00 (≈ 3.08 µg/mL) | >500 | >500 | 99 | 28 | 29 | 9 | 27 | 8 | 113 | 120 | 45 | 22 | % hemolysis 100/25 μM (first value) [4]: 63%; Minimum Inhibitory Concentration Bacillus anthracis Ames ([6]; listed as 24): 0.98 µg/mL; Minimum Inhibitory Concentration Plague CO92 ([8]; listed as 24): >500 µg/mL
2 | CC(=O)NCC(=O)N[C@@H](Cc1ccc(F)cc1)C(=O)N1Cc2ccccc2CC1C(=O)N1C(C(=O)NCC(=O)N[C@@H](CCCCN)C(=O)N2Cc3ccccc3CC2C(=O)N2C(C(=O)NCC(=O)N[C@@H](Cc3ccc(F)cc3)C(=O)N3Cc4ccccc4CC3C(=O)N3C(C(=O)NCC(=O)N[C@@H](CCCCN)C(=O)N4Cc5ccccc5CC4C(=O)N[C@@H](CCCCN)C(=O)N[C@@H](CCCCN)C(=O)N[C@@H](CCCCN)C(=O)N[C@@H](CCCCN)C(N)=O)CC4CCCCC43)CC3CCCCC32)CC2CCCCC21 (stereo partly drawn) [FKAB-1Go, Ac-G-Fpa-Tic-Oic-GK-Tic-Oic-G-Fpa-Tic-Oic-GK-Tic-KKKK-CONH2] (Ac-G[Phe(4-F)][ξTic][ξOic]GK[ξTic][ξOic]G[Phe(4-F)][ξTic][ξOic]GK[ξTic]KKKK-NH2) | 10.00 (≈ 24.8 µg/mL) | 10 | 3.00 (≈ 7.43 µg/mL) | 3 | 0.30 (≈ 0.743 µg/mL) | 250 | >500 | 103 | 57 | 65 | 94 | 54 | 59 | 74 | 57 | 26 | 22 | MIC Salmonella typhimurium [14]: 30 µM (≈ 74.3 µg/mL); Minimum Inhibitory Concentration Salmonella typhimurium [14]: 30 µM; Minimum Inhibitory Concentration Bacillus subtillis [3]: 0.3 µM; Minimum Inhibitory Concentration Bacillus anthracis Ames ([6]; listed as 44): 0.98 µg/mL; Minimum Inhibitory Concentration Plague CO92 ([8]; listed as 44): 31.25 µg/mL; remaining at 1 h, 1 μM [12]: 75%; remaining at 0.25 h, 1 μM [13]: 81%
